Experimental data published in publication PMC6452685, “Lysyl-tRNA synthetase as a drug target in malaria and cryptosporidiosis” (Proceedings of the National Academy of Sciences of the …, 2019).
pEC50, pIC50: −log10 of the molar value. Read-outs that look alike come from different tables or passages of the source.

Tests used:
CYP1A2 = target: T1, CYP1A2 (Homo sapiens, UniProt P05177); assay: Fluorescence-based CYP inhibition, CYP1A2; format: in vitro ADME
T1 construct: purchased Cypex, Dundee, UK; host or cells: bacterial membranes (bactosomes)
Experimental: (§1) 4.7 F lu or e s ce nce-based CYP I nhibition usin g recombinantly expressed CYP b actosomes Fl uorogeni c C YP i nhi bi t i on s t udi es w ere c ondu ct ed at 37 °C i n 96-well, flat-bot t om, cl ear p ol y s t y rene pl at es. I ncubat i on mi xt ures cont ai ni ng Eas y C YP bact os omes (1000 pmol /ml , 10 mg /ml C y pex TM, Dundee, UK), fl uorogeni c substrate (Cypex TM) and 50 mM potas s i um phosphat e buffer (p H 7. 4) w er e prepared at t he fol l ow i ng fi nal concent rat i ons : C YP1A2, 5 pmol /ml + 35 µ M et hox y res orufi n (ER) ; CYP2C9, 10 pm ol/ml + 30 µM 7-methoxy-4-(tri fl uo romethy l )-coumari n (MFC ); C YP 2C 19, 5 pm ol /ml + 25 µM 3-cy ano-7-eth oxycoumarin (CEC); C YP 2D 6, 10 pmol /ml + 6 µM 7-meth oxy-4-(ami nomethy l )- coumari n (MAMC ); C YP 3A4, 10 pmol /ml + 1 µM diethoxyfluorescein (DEF) and 10 pmol /ml + 15 µM 7-benz y l ox y qui nol i ne (BQ ). […] 0125 ( 1A2 and 2C 9 onl y ) o r 0. 025 mg /ml (al l ot her i s oforms ). […] Positive control inhibitor, miconazole, was prepared as a 500 µM s olution in DMSO and similarly diluted.
(§2) For eac h i sofo rm, 2 20 µl of i ncubati on mi x was added to each wel l of a 96-well, flat-bot t om, cl ear pol y s t y rene pl at e. Al i quot s (5 µl) of each compound 5 conce ntrati on was then mi x ed wi th 220 µl of the incubation mix and pre-incubated at 37 °C for 5 min (final test compound concentration range: […]

CYP3A4 = target: T2, CYP3A4 (Homo sapiens, UniProt P08684); assay: Fluorescence-based CYP inhibition, CYP3A4; format: in vitro ADME
T2 construct: purchased Cypex, Dundee, UK; host or cells: bacterial membranes (bactosomes)
Experimental: as §1, §2

[1] = test system: Nluc-expressing transgenic C. parvum; assay: Anti-Cryptosporidium in vivo efficacy in IFN-γ-knockout mice (Nluc C. parvum); design: species or system mouse; details: 20 mg/kg orally once a day for 7 d
Experimental: INF-γ–knockout mice ([28], [29]) were infected orally with Nluc-expressing transgenic C. parvum oocysts. Treatment started upon patency 4 d postinfection (p.i.), and mice were treated orally once a day for 7 d. Infection was monitored daily by luciferase measurements in pooled feces of the entire cage. Mice were followed for 3 wk after completion of drug treatment. […] NOD SCID gamma mice were infected with C. parvum oocysts ([26]). Treatment started 7 d p.i., and mice were treated orally once a day for 7 d. The study was run with four mice per cage; infection was monitored by quantitative PCR on day eight for individual mice, and data are shown as oocysts per milligram of feces. […]
Data analysis was performed using GraphPad Prism 7.0 (GraphPad S oftware), Excel 2016 (Microsoft ) and R free so ftware (https://www.r-project.org) for data pl otti ng and s tati s ti cal model li ng. […]
5. 4 M eas urement of a nt i-Cryptosporidium in vivo efficacy in IFN-γ-knockout mice (Georgia) The Nl uc-C. parvum IFN-γ-knockout (IFN-γ KO) m ouse in vivo experiments were run in acco rdance with the publ i s hed method (22). Briefly, female C57BL/ 6 IFN-γ KO mi ce, aged 6–8 weeks were infected with 10,000 C. parvum UG A1 Nl uc (Vi naya k et al 2015, Natu re) tra ns g eni c oocys ts . […]

[2] = test system: P. vivax liver schizonts/hypnozoites; assay: P. vivax liver schizonts/hypnozoites (prophylactic mode); format: cell-based; details: Plasmodium vivax
Experimental: Thi s i s bas ed on met hods prev i ous l y report ed (12 ). In bri ef, HepG 2-A1 6-CD81EGFP cel l s were cul tured at 3 7 °C i n 5% C O2 in DMEM me dia. For both P. berghei-Luc and HepG2 cytotoxi ci ty assays, 3x 10**3 of the HepG2-A16-CD81EGFP20 cells in 5 µl of assay medi um (DMEM wi thout Phenol Red (Li fe Techn ol ogi es, CA), 5% FBS, and 5x Pen Stre p Gl utami ne (Li fe Techn ol ogi es, CA)) at concentrati o n 6x 10**5 cel l s /ml were s eeded i n white s oli d bottom 153 6-well pl at es (cus t om G NF mol d ref# 7891 73-F, Grei ner Bi o-One), 2 0-26 h prior to sporozoites infection. […]
pri or t o i nfect i on 5 0 nl of comp ounds i n 1:3 s eri al di l ut i ons in DMSO (0. 5% fi nal DMSO concentrati on per w el l ) w ere t rans ferred w i t h an Acous ti c Trans fer Sy s t em (ATS) (Bi os ero) t o the cells. Atovaquone (5µ M) and pu romy ci n (1 0 µM) at a single concentration were used as pos i t i v e cont rol s for the Pbluc and He pG 2tox , res pecti v el y . 0. 5% DMSO was us ed as neg ati v e control for both as s ay s . […]
[…] Immediately after addition of the luminescence reagent, the luminescence was measured by the Env i s i on M ul t il abel Reader (Perk i nEl mer). […]
Thi s is a modification of the previously reported method (13). […]

T1 sequence (P05177 whole entry): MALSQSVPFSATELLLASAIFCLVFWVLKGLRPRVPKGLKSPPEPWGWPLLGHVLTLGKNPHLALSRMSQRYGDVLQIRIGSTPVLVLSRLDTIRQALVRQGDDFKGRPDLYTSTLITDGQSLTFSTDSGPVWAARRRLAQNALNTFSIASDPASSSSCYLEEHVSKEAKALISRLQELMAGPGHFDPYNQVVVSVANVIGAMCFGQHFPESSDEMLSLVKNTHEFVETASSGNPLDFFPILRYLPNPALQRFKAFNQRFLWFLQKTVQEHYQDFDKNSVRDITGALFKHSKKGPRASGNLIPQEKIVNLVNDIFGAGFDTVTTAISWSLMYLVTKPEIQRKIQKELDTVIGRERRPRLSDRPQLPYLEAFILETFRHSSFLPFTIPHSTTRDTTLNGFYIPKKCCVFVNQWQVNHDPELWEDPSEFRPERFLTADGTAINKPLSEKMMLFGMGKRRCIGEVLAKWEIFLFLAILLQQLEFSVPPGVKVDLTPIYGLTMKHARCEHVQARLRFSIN
T2 sequence (P08684 whole entry): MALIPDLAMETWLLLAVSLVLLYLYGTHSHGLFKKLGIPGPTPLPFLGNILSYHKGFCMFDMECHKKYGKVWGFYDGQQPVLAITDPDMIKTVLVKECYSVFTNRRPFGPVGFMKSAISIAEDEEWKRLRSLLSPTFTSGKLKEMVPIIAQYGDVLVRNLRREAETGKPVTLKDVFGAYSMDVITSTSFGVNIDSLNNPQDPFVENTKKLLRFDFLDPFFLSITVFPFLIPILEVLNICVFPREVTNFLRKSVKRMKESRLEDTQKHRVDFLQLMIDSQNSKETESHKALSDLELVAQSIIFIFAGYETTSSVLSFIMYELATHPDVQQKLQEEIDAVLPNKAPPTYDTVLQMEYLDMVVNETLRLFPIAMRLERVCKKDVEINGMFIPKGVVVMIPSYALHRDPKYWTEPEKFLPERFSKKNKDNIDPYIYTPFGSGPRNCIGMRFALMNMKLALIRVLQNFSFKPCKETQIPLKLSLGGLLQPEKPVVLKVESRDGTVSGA

O=C(NCC1(O)CCC(F)(F)CC1)c1cc(=O)c2cc(F)ccc2o1 [Compound 5]
pIC50 (CYP1A2): < 5.00 | pIC50 (CYP3A4): < 5.00 | parasite shedding ([1]; INF-γ–knockout mice): below detection level | reduction in parasite levels compared with control ([1]; INF-γ–knockout mouse, day 8): 10,000 fold | pEC50 ([2]; hypnozoites, read-out: P. vivax hypnozoites EC50 (prophylactic mode)): < 5.00 | pEC50 ([2]; liver schizonts, read-out: P. vivax liver schizonts EC50 (prophylactic mode)): 6.02
